Data on four compounds can be found in patent US11920139B2, “Regulated expression of antigen and/or regulated attenuation to enhance vaccine immunogenicity and/or safety” (priority 2007, dated 2024).

Experiment [1] has as its system Salmonella Typhi strain χ9633(pYA4088). The experiment can be described thus: Minimum inhibitory concentrations of antibiotics. The format is cell-based. The following applies: for MIC: Salmonella enterica, TYPHI, read-out: Minimum inhibitory concentration. From the text:
(§1) Master seed and working seed banks of each vaccine organism in separate vials have been prepared for frozen storage in vegetable-based cryopreservative. […] Antibiotic sensitivity testing has confirmed that these strains are sensitive to ciprofloxacin, ampicillin, ceftriaxone, trimethoprim/sulfamethoxazole (Table 15). Ampicillin, ciprofloxacin, ceftriaxone and trimethoprim/sulfamethoxazole are typically tested for minimum inhibitory concentrations (MICs) for Salmonella.

Experiment [2] deals with Salmonella Typhi strain χ9639(pYA4088). The experiment can be described thus: microbe, parasite or virus in culture. The following applies: for MIC: Salmonella enterica, TYPHI, read-out: Minimum inhibitory concentration. The format is cell-based. From the text: (§2) Master seed and working seed banks of each vaccine organism in separate vials have been prepared for frozen storage in vegetable-based cryopreservative. […] Ampicillin, ciprofloxacin, ceftriaxone and trimethoprim/sulfamethoxazole are typically tested for minimum inhibitory concentrations (MICs) for Salmonella.

Experiment [3] relates to Salmonella Typhi strain χ9640(pYA4088). The experiment can be described thus: microbe, parasite or virus in culture. The format is cell-based. To be noted: for MIC: Salmonella enterica, TYPHI, read-out: Minimum inhibitory concentration.
Text: as §2

In experiment [4] the test system is the three vaccine strains (RASV-Sp). Put plainly: Antibiotic sensitivity testing of the vaccine strains. The class given is cell-based, Salmonella Typhi.
Text: as §1

As to `CC1(C)S[C@@H]2[C@H](NC(=O)[C@H](N)c3ccccc3)C(=O)N2[C@H]1C(=O)O` [ampicillin], the MIC in experiment [1], in experiment [2] and in experiment [3] was less than 2 µg/mL throughout. Also, the “antibiotic sensitivity” value in experiment [4] is on record as “sensitive”.
Consider `CO/N=C(\C(=O)N[C@@H]1C(=O)N2C(C(=O)O)=C(CSc3nc(=O)c(=O)[nH]n3C)CS[C@H]12)c1csc(N)n1` [ceftriaxone], for which the MIC in experiment [1] was less than 0.25 µg/mL; in experiment [2] it was less than 1 µg/mL; in experiment [3] it was less than 1 µg/mL. Besides, the “antibiotic sensitivity” value in experiment [4] is given as “sensitive”.
On to `O=C(O)c1cn(C2CC2)c2cc(N3CCNCC3)c(F)cc2c1=O` [ciprofloxacin], for which the MIC in experiment [1], in experiment [2] and in experiment [3] was less than 0.25 µg/mL throughout. The “antibiotic sensitivity” value in experiment [4] is recorded as “sensitive”.
As to trimethroprim-sulfamethoxazole, the Minimum inhibitory concentration in experiment [1], in experiment [2] and in experiment [3] was less than 20 µg/mL in each case. The “antibiotic sensitivity” value in experiment [4] is listed as “sensitive”.
